Measurements published in ChEMBL document CHEMBL3593195, “Endophytic Diaporthe sp. LG23 Produces a Potent Antibacterial Tetracyclic Triterpenoid” (2015).
Converted amounts (≈) assume the structure as drawn.

Columns and labels:
Assay type in all cases: functional
Bacillus subtilis = assay: Antibacterial activity against Bacillus subtilis DSM 1088 incubated for 24 hrs by disk diffusion method
Escherichia coli = assay: Antibacterial activity against Escherichia coli DSM 682 incubated for 24 hrs by disk diffusion method
Streptococcus pyogenes = assay: Antibacterial activity against Streptococcus pyogenes DSM 11728 incubated for 24 hrs by disk diffusion method
Staphylococcus aureus = assay: Antibacterial activity against Staphylococcus aureus DSM 799 incubated for 24 hrs by disk diffusion method
Pseudomonas aeruginosa = assay: Antibacterial activity against Pseudomonas aeruginosa DSM 22644 incubated for 24 hrs by disk diffusion method

Row | Molecule | MIC (Bacillus subtilis; DSM 1088, 24 h) [µg/mL] | MIC (Escherichia coli; DSM 682, 24 h) [µg/mL] | MIC (Streptococcus pyogenes; DSM 11728, 24 h) [µg/mL] | MIC (Staphylococcus aureus; DSM 799, 24 h) [µg/mL] | MIC (Pseudomonas aeruginosa; DSM 22644, 24 h) [µg/mL] | MIC (Bacillus subtilis) [µg/mL] | MIC (Escherichia coli) [µg/mL] | MIC (Streptococcus pyogenes) [µg/mL] | MIC (Staphylococcus aureus) [µg/mL] | MIC (Pseudomonas aeruginosa) [µg/mL]
1 | CC(C)[C@@H](C)/C=C/[C@@H](C)[C@H]1CC[C@H]2C3=CC(=O)[C@@]4(O)C[C@@H](O)CC[C@]4(C)[C@@]3(O)CC[C@]12C | 5 (≈ 11.2 µM) | > 10 | > 10 | > 10 | > 10 |  |  |  |  | 
2 | CC(C)[C@@H](C)/C=C/[C@@H](C)[C@H]1CCC2C3=CC(=O)O[C@@]3(O)CC[C@@]21C (stereo not given in full) [DEMETHYLINCISTEROL A3] | > 10 | > 10 | > 10 | > 10 | > 10 |  |  |  |  | 
3 | CN[C@@H]1[C@H](O[C@H]2[C@H](O[C@H]3[C@H](O)[C@@H](O)[C@H](N=C(N)N)[C@@H](O)[C@@H]3N=C(N)N)O[C@@H](C)[C@]2(O)C=O)O[C@@H](CO)[C@H](O)[C@H]1O [STREPTOMYCIN] | 5 (≈ 8.6 µM) | 1 (≈ 1.72 µM) | > 10 | 5 (≈ 8.6 µM) | 10 (≈ 17.2 µM) |  |  |  |  | 
4 | GENTAMICIN |  |  |  |  |  | 1 | 1 | 10 | 1 | 1
5 | CC(C)=CC[C@H](O)[C@@H](C)[C@H]1CC[C@@]2(C)c3ccc4c(c3C[C@@H](O)[C@]12C)[C@@H](O)C[C@H](O)C4(C)C | 2 (≈ 4.38 µM) | 5 (≈ 10.9 µM) | 0.1 (≈ 0.219 µM) | 5 (≈ 10.9 µM) | 2 (≈ 4.38 µM) |  |  |  |  | 
6 | CC(C)[C@@H](C)/C=C/[C@@H](C)[C@H]1CC[C@H]2/C(=C/C(=O)O[C@]3(C)CCC=CC3=O)C(=O)CC[C@]12C | 5 (≈ 11.3 µM) | > 10 | > 10 | 1 (≈ 2.27 µM) | > 10 |  |  |  |  | 
7 | CO[C@]12CC[C@]3(C)[C@@H]([C@H](C)/C=C/[C@H](C)C(C)C)CC[C@H]3C1=CC(=O)O2 | > 10 | > 10 | > 10 | > 10 | > 10 |  |  |  |  | 
8 | CC(C)[C@@H](C)/C=C/[C@@H](C)[C@H]1CC[C@@]2(O)C3=CC(=O)[C@@]4(O)C[C@@H](O)CC[C@]4(C)[C@@]3(O)CC[C@]12C | > 10 | > 10 | > 10 | > 10 | > 10 |  |  |  |  | 
9 | CC(C)[C@@H](C)/C=C/[C@@H](C)[C@H]1CC[C@H]2C3=C[C@H](O)[C@@]4(O)C[C@@H](O)CC[C@]4(C)C3=CC[C@]12C | > 10 | > 10 | > 10 | > 10 | > 10 |  |  |  |  | 
